Measured values taken from patent US7122336B2, “Therapeutic and diagnostic methods for ulcerative colitis and associated disorders” (University of Medicine & Dentistry of New Jersey, priority 2000, dated 2006).
“Also recorded” adds a separate entry of the source.

Tests used:
[1] = system: secretion of hTM5 in LS-180 cells; assay: Secretion of hTM5 by 35S-methionine-labeled LS-180 cells (chase with drugs, immunoprecipitation of culture medium, SDS-PAGE-fluorography, densitometry of 31 kDa band); type: cell-based, human; details: PMA 10 μM; for effect on the secretion of hTM5 (in words): 7E12H12 and LC-1 immunoprecipitations (FIGS. 7B and 7C); for effect on the secretion of hTM5 (in words) / stimulation of the secretion of hTM5 (31 kDa band, densitometry) compared to only DMSO treatment: A23187 2 μM, 2 h chase; for stimulation of the secretion of hTM5 (31 kDa band, densitometry) compared to only DMSO treatment: LS-180 culture medium; for effect of inhibitors of secretion on the secretion of hTM5 (in words): LC-1 immunoprecipitation (FIG. 7D), monensin 10 μM, methylamine 10 mM added during the chase
Method: (§1) A) Culture supernatant of LS-180 cells, labeled with […] (100 μCi/ml) for 16 h and chased for 2 h incubated with various drugs, was immunoprecipitated and analyzed by 3–12% SDS-PAGE-fluorography. For untreated cells, 10 μl/ml of DMSO was added during the chase. Immunoprecipitation was performed using 7E12H12 (lanes 1–4) or LC-1 (lanes 5–8) mAbs. Lanes 1 and 5 show the immunoprecipitation profile of the culture supernatant from untreated cells. Note the presence of a 31 kDa protein in lanes 1 and 5. The effect of secretagogues was examined by addition of 2 μM A23187 (lanes 2 and 7) or 10 μM PMA (lanes 3 and 6) during the chase. To examine the combined effect, A23187 (2 μM) and PMA (10 μM) were added together (lanes 4 and 8, respectively). B and C) For quantitative determination, a densitometric analysis of the 31 kDa band, coimmunoprecipitated with CEP (lanes 1–4) or hTM5 (lane 5–8) was performed with a 1 square millimeter window using a BioRad 670 densitometer after overnight exposure of the gel. Histograms B and C represent lanes 1–4 and 5–8 respectively. D) Effect of inhibitors of secretion on the secretion of hTM5. The inhibitors were added during the chase and the culture medium was immunoprecipitated with LC-1 mAb. Lane-1: PMA (10 μM), Lane-2: DMSO only, Lane-3: monensin (10 μM), and Lane-4: methylamine (10 mM) and analyzed by 3–12% gradient SDS-PAGE-fluorography.
To examine the possible association of hTM5 with the colon epithelium-specific protein (CEP), reactive with 7E12H12 monoclonal antibody, we adopted the protocols for radiolabeling, chase and drug treatment used in the study of regulated and unregulated secretion of glycoproteins from colon cancer cells (McCool DJ., et al., Biochem J. 1995; 312: 125–33; and Brion C., et al., J. Biol. Chem. 1992; 267: 1477–83). LS-180 cells were labeled with ^35S-methionine by treatment with methionine-free medium supplemented with 5% dialyzed fetal bovine serum and ^35S-methionine (100 μCi/ml) for 16 hours. Labeling was terminated by washing the cells two times with PBS followed by chase with regular DME for 2 hr. To examine the effects of stimulators and inhibitors of secretion, appropriate drugs were added during the chase period as described (McCool et al., supra; and Brion, et al., supra). Immunoprecipitations were performed on the culture medium as described in Kesari, K V and Geliebter, J. Immunol. Letts 1993: 38: 77–83. After the chase, the culture medium was collected, centrifuged to remove any insoluble material, and mixed with one tenth volume of 10× lysis buffer (500 mM Tris Cl, […], 5% NP40, and protease inhibitor cocktail, Complete, Boehringer-Mannheim, GMBH, Germany). To reduce nonspecific binding, the culture medium, where LS-180 cells were grown, was preabsorbed with protein G agarose (GIBCO-BRL, NY) for 16 h at 4° C. Immunoprecipitation was carried out on ice with purified monoclonal antibodies (5 μg/ml) or ascites (10 μl/ml) for 2 h and the immune complexes were collected on Protein G Agarose. To collect IgM immune complexes, protein G Agarose was pre-coated with affinity purified rabbit anti mouse IgM-μ chain-specific immunoglobulins (2 mg IgG/ml gel). The immune complexes were washed three times by centrifugation with ice cold washing buffer-1 (50 mM Tris Cl, pH 7.4, 150 mM NaCl, 5 mM EDTA, and 0.5% NP40), followed by one wash in buffer-2 (50 mM Tris Cl, pH 7.4, 500 mM MaCl, 5 mM EDTA, and 0.5% NP40), and once with buffer-3 (50 mM Tris Cl, pH 7.4).
To investigate whether the release of hTM5 from LS-180 cells is an active process, the effect of known stimulators (secretagogues), and inhibitors of secretion was examined in the present invention. Two secretagogues, the Ca ^2 ionophore A23187, and phorbol-12-myristate-13-acetate (PMA) have been used to explore the secretory pathways in LS-180 cells (McCool D J et al (1995) supra). […]

[2] = system: secretion of CEP in LS-180 cells; assay: Secretion of CEP by 35S-methionine-labeled LS-180 cells (immunoprecipitation with 7E12H12); type: cell-based, human; details: 7E12H12 immunoprecipitation (FIG. 7A, lanes 1-4); A23187 2 μM, PMA 10 μM, or both
Method: as §1, with “gradient SDS-PAGE-fluorography. […]” for “gradient SDS-PAGE-fluorography.”

[3] = system: mucin secretion in LS-180 cells; details: McCool D J, et al. (1995); cited from earlier work
CEP = assay: Cell surface expression of CEP; type: cell-based

Row | Structure (SMILES) | effect on the secretion of hTM5 (in words) [1] | stimulation of the secretion of hTM5 (31 kDa band, densitometry) compared to only DMSO treatment ([1]; 7E12H12 immunoprecipitation (FIG. 7B)) [fold] | stimulation of the secretion of hTM5 (31 kDa band, densitometry) compared to only DMSO treatment ([1]; LC-1 immunoprecipitation (FIG. 7C)) [fold] | effect on secretion of CEP (in words) [2] | effect on mucin secretion in LS-180 cells [3] | effect of inhibitors of secretion on the secretion of hTM5 (in words) [1] | cell surface expression of CEP, sensitivity to drug (CEP)
1 | CNc1ccc2oc(C[C@H]3O[C@@]4(CC[C@H]3C)O[C@H]([C@H](C)C(=O)c3ccc[nH]3)[C@H](C)C[C@H]4C)nc2c1C(=O)O [A23187] | increased | 4.5 | 7.8 | unaffected | stimulate |  | 
2 | CN [methylamine] |  |  |  |  |  | inhibited; also recorded: absence of hTM5 | 
3 | CCCCCCCCCCCCCC(=O)O[C@@H]1[C@@H](C)[C@@]2(O)[C@@H](C=C(CO)C[C@]3(O)C(=O)C(C)=C[C@@H]23)[C@@H]2C(C)(C)[C@]12OC(C)=O [PMA, phorbol-12-myristate-13-acetate] | almost totally inhibited |  |  | unaffected | stimulate | absence of hTM5 | 
4 | CC[C@@]1([C@@H]2O[C@@H]([C@H]3O[C@@](O)(CO)[C@H](C)C[C@@H]3C)C[C@@H]2C)CC[C@H]([C@]2(C)CC[C@]3(C[C@H](O)[C@@H](C)[C@@H]([C@@H](C)[C@@H](OC)[C@H](C)C(=O)O)O3)O2)O1 [monensin] |  |  |  |  |  | inhibited; also recorded: absence of hTM5 | sensitive
